Source: ChEMBL document CHEMBL3352421, “Development of a new benzophenone-diketopiperazine-type potent antimicrotubule agent possessing a 2-pyridine structure” (ACS Med Chem Lett, 2014)
Activity calls are given as the source filed them. The calls are words filed in the database; no cut-off is given here.

How the values were obtained:
HT-29 [1] = assay: Cytotoxicity against human HT-29 cells after 48 hrs by XTT/PMS assay; type: functional, cell-based; conditions: HT-29, 48 h
Tubulin [2] = target: T1, Tubulin (Sus scrofa, UniProt P02554+P02550); assay: Binding affinity to porcine tubulin incubated for 1 hr by spectrofluorometry; type: protein assay
Tubulin [3] = target: T1, Tubulin; assay: Inhibition of porcine tubulin polymerization by spectrophotometry; type: protein assay
HeLa [4] = assay: Cytotoxicity against human HeLa cells after 48 hrs by WST8 assay; type: functional, cell-based
A549 [5] = assay: Cytotoxicity against human A549 cells after 48 hrs by WST8 assay; type: functional, cell-based; conditions: A549, 48 h
HeLa [6] = assay: Potency index, ratio of IC50 for Plinabulin to IC50 for test compound against human HeLa cells after 48 hrs by WST8 assay; type: functional
A549 [7] = assay: Potency index, ratio of IC50 for Plinabulin to IC50 for test compound against human A549 cells after 48 hrs by WST8 assay; type: functional
[8] = Cytotoxicity against human NHSF46 cells after 48 hrs by XTT/PMS assay; type: cell-based; conditions: NHSF46, 48 h
[9] = Cytotoxicity against human PMNC cells after 48 hrs by WST1 assay; type: functional, cell-based
HT-29 [10] = assay: Selectivity index, ratio of IC50 for human NHSF46 cells to IC50 for human HT-29 cells; type: functional
HT-29 [11] = assay: Selectivity index, ratio of IC50 for human PMNC cells to IC50 for human HT-29 cells; type: functional
HeLa [12] = assay: Induction of multipolar spindle formation in human HeLa cells at 7 nM by DAPI staining; type: functional, cell-based
HeLa [13] = assay: Inhibition of mitotic spindle formation in human HeLa cells at 7 and 30 nM by DAPI staining
HeLa [14] = assay: Induction of multipolar spindle formation in human HeLa cells at 20 to 30 nM by DAPI staining; type: functional, cell-based

## O=C(c1ccccc1)c1cccc(/C=c2\[nH]c(=O)/c(=C/c3cccnc3)[nH]c2=O)c1
HT-29 [1]
  IC50: > 1000 nM

## O=C(c1ccccc1)c1cccc(/C=c2\[nH]c(=O)/c(=C/c3ccncc3)[nH]c2=O)c1
HT-29 [1]
  IC50: > 1000 nM

## O=C(c1ccccc1)c1cccc(/C=c2\[nH]c(=O)/c(=C/c3ccccn3)[nH]c2=O)c1
HT-29 [1]
  IC50: 7 nM
Tubulin [2]
  Kd: 1300 nM
Tubulin [3]
  IC50: 1200 nM
HeLa [4]
  IC50: 5.4 nM
A549 [5]
  IC50: 14.2 nM
HeLa [6]
  Ratio IC50: 3.8
A549 [7]
  Ratio IC50: 2.5
[8]
  IC50: 77 nM
[9]
  IC50: 481 nM
HT-29 [10]
  Ratio IC50: 10
HT-29 [11]
  Ratio IC50: 10
HeLa [12]
  Activity: Active
HeLa [13]
  inhibition: Active

## Cc1[nH]cnc1/C=c1\[nH]c(=O)/c(=C/c2cccc(C(=O)c3ccccc3)c2)[nH]c1=O
HT-29 [1]
  IC50: 15 nM

## O=C(c1ccccc1)c1cccc(/C=c2\[nH]c(=O)/c(=C/c3ccccc3)[nH]c2=O)c1
HT-29 [1]
  IC50: 94.3 nM

## O=C1CNC(=O)/C(=C/c2cccc(C(=O)c3ccccc3)c2)N1
HT-29 [1]
  IC50: > 20000 nM

## CC(C)(C)c1[nH]cnc1/C=c1\[nH]c(=O)/c(=C/c2ccccc2)[nH]c1=O [PLINABULIN]
Tubulin [2]
  Kd: 1000 nM
Tubulin [3]
  IC50: 1800 nM
HeLa [4]
  IC50: 20.6 nM
A549 [5]
  IC50: 35.7 nM
HeLa [14]
  Activity: Active
HeLa [13]
  inhibition: Active

## O=C(c1ccccc1)c1cccc(/C=c2\[nH]c(=O)/c(=C/c3ncccn3)[nH]c2=O)c1
HT-29 [1]
  IC50: 75.3 nM

## CC(=O)N1CC(=O)N/C(=C\c2cccc(C(=O)c3ccccc3)c2)C1=O
HT-29 [1]
  IC50: 8800 nM
